Each structure is given as a SMILES string.

The results in this text go back to patent US20240287463A1, “INDUCIBLE TISSUE CONSTRUCTS AND USES THEREOF” (Massachusetts Institute of Technology, priority 2020, published 2024).

The test system of one data set is unmodified J2s. Put plainly: CID exposure of MPCCs plated with unmodified fibroblasts. It counts as cell-based. As to conditions: data not shown. The text has this:
(§1) Specifically, MPCC were fabricated as described previously (S. R. Khetani and S. N. Bhatia (2005) Nat. Biotechnol 26, 120; S. March et al. (2015) Nat. Protoc. 10, 2007). Briefly, collagen was adsorbed in each well of a 96 well plate (glass bottom), and then patterned using an elastomeric polydimethysiloxane mold and oxygen plasma gas ablation. Human hepatocytes were thawed and seeded (70 k/well) on the collagen islands (500 μm with 1,200 μm center-to-center spacing). Adhered hepatocytes (˜10 k/well) were allowed to spread overnight before fibroblasts were seeded for co-culture (7 k/well). Supernatant was collected from cultures every other day and stored at −20° C. Human albumin was quantified using an enzyme-linked immunosorbent assay using a sheep anti-rat albumin antibody (ELISA) (Bethyl Laboratories) and 3,3′,5,5′-tetramethylbenzidine (TMB, Thermo Fisher). Urea concentration was measured using a colorimetric (diacetylmonoxime) assay with acid and heat (Stanbio Labs). CYP3A4 activity was assessed with the luminogenic P450-GloTM CYP450 assay kit (Promega) for nonlytic assays using cultured cells. Cultures were pre-treated with 2 μM rifampin or 1:1,000 DMSO vehicle control prepared in hepatocyte maintenance media for 72 hours (daily replenishment) where indicated. […]

For data set [1], the system named is primary human hepatocytes. In words: hepatocyte phenotypic stability (albumin production) in MPCC after fibroblast deletion. It counts as cell-based. As to conditions: CID at day 1, day 3 or day 7 of 2D MPCC.
Excerpt: as §1, with “cells.” for “cells. Cultures were pre-treated with 2 μM rifampin or 1:1,000 DMSO vehicle control prepared in hepatocyte maintenance media for 72 hours (daily replenishment) where indicated.”
To query the dependence of hepatocytes on fibroblasts, fibroblasts were deleted from MPCCs by CID treatment at various time points and albumin production was assessed as a surrogate marker of phenotypic stability.

The next data set deals with iCasp9-GFP fibroblasts. Put plainly: viability of hydrogel-encapsulated monoculture fibroblasts. The class given is cell-based.
The subject of data set [2] is primary human hepatocytes. Put plainly: hepatocyte function and toxicity in 3D spheroid-laden hydrogels after fibroblast deletion. The class given is cell-based. The text has this:
Specifically, MPCC were fabricated as described previously (S. R. Khetani and S. N. Bhatia (2005) Nat. Biotechnol 26, 120; S. March et al. (2015) Nat. Protoc. 10, 2007). Briefly, collagen was adsorbed in each well of a 96 well plate (glass bottom), and then patterned using an elastomeric polydimethysiloxane mold and oxygen plasma gas ablation. Human hepatocytes were thawed and seeded (70 k/well) on the collagen islands (500 μm with 1,200 μm center-to-center spacing). Adhered hepatocytes (˜10 k/well) were allowed to spread overnight before fibroblasts were seeded for co-culture (7 k/well). Supernatant was collected from cultures every other day and stored at −20° C. Human albumin was quantified using an enzyme-linked immunosorbent assay using a sheep anti-rat albumin antibody (ELISA) (Bethyl Laboratories) and 3,3′,5,5′-tetramethylbenzidine (TMB, Thermo Fisher). Urea concentration was measured using a colorimetric (diacetylmonoxime) assay with acid and heat (Stanbio Labs). CYP3A4 activity was assessed with the luminogenic P450-GloTM CYP450 assay kit (Promega) for nonlytic assays using cultured cells. Cultures were pre-treated with 2 μM rifampin or 1:1,000 DMSO vehicle control prepared in hepatocyte maintenance media for 72 hours (daily replenishment) where indicated.
Previous work identified that phenotypic stability and longevity of primary hepatocytes cultured as 3D microtissues were transiently supported by pre-aggregation to increase homotypic cell-cell interactions, and were further enhanced upon inclusion of J2 fibroblasts (C. Y. Li et al. (2014) Tissue Eng. Part A 20, 2200). Thus, iCasp9-GFP J2 fibroblasts were incorporated into these 3D hepatic ensembles, which were fabricated by plating primary human hepatocytes and fibroblasts in microwells in order to facilitate physical cell-cell contacts, as previously described (K. Stevens et al. (2013) Nat. Commun. 4, 1847; K. R. Stevens et al. (2017) Sci. Transl. Med. 9, eaaah5505). Specifically, cryopreserved 365 human hepatocytes were thawed and immediately plated with fibroblasts in AggreWells (400 μm pyramidal microwells) and incubated overnight. Hepatic spheroids (about 150 hepatocytes per spheroid, ˜100 μm diameter) were imaged and analyzed to quantify the extent of spheroid compaction. Individual spheroids were isolated manually using Fiji, (J. Schindelin et al. (2012) Nat. Methods 9, 676). […] Resulting morphologies were traced and measured for circularity. […]
To probe the dependence of hepatocyte phenotypic stability on fibroblast co-culture in 3D, fibroblasts were deleted from spheroid-laden hydrogel cultures using CAMEO after 1 day of hepatocyte-fibroblast co-culture. Fibroblasts were robustly removed from 3D co-cultures as described in the above Examples, and detected by immunofluorescence imaging (FIG. 3I). […]

Another data set deals with iCasp9-HDFs. Put plainly: apoptosis of 2D monolayer fibroblasts (cellular ATP, cell density). The class given is cell-based, human. The method, then:
To be able to remove fibroblasts on demand from the developing co-culture, the synthetically engineered, inducibly activated caspase-9 (iCasp9) outlined in the examples above was used. Using this inducible transgene, iCasp9-HDFs were established and characterized for effectiveness. iCasp9-HDFs were seeded on tissue culture plastic, and allowed to form a confluent monolayer before adding different concentrations of CID.

For data set [3], the system named is HUVECs. Put plainly: vascular network in HUVEC/iCasp9-HLF microfluidic devices after fibroblast removal. It counts as cell-based, human. As to conditions: iCasp9-HLFs removed after only 3 days of co-culture.
The test system of data set [4] is HUVECs. Put plainly: vascular perfusion in tri-culture microfluidic devices. It counts as cell-based, human. The note with it: 50 nM CID after 5 days of tri-culture. The source says: Given that fibroblasts are only transiently required for supporting the formation of a functional vasculature, it was investigated whether CAMEO could be used in the vascularization of tissue constructs with organ-specific parenchymal cells without negatively affecting the function of the parenchymal cells. To investigate this, a tri-culture system of HUVECs, iCasp9-HDFs, and primary human hepatocytes was employed in the microfluidic device. Using the methods described in Example 5, a solution of HUVECs (3 million cells/mL), iCasp-9 HDFs (total of 6 million cells/mL), hepatic aggregates (0.36 million aggregates/mL with about 150 hepatocytes per aggregate), fibrinogen (2.5 mg/mL), thrombin (1 U/mL) was made in a 1:1 mixed media of EGM-2 and hepatocyte maintenance media. After 5 days of tri-culture, the devices were treated with 50 nM CID to remove the iCasp9-HDFs, or with vehicle control. All samples were fixed at day 7 to evaluate vascular perfusion (FIG. 8A). […] To evaluate whether the hepatocytes remained functional after CID treatment, levels of albumin and urea, markers for hepatic protein synthesis function and nitrogen metabolism, respectively, were measured in the media.

Consider `CC[C@H](C(=O)N1CCCC[C@H]1C(=O)O[C@H](CCc1ccc(OC)c(OC)c1)c1cccc(OCC(=O)NCC(CNC(=O)COc2cccc([C@@H](CCc3ccc(OC)c(OC)c3)OC(=O)[C@@H]3CCCCN3C(=O)[C@@H](CC)c3cc(OC)c(OC)c(OC)c3)c2)CN(C)C)c1)c1cc(OC)c(OC)c(OC)c1` [CID, AP20187], for which, in the data set on unmodified J2s, the “effect of CID exposure on unmodified J2s in MPCCs” value is “unaffected”. Moreover, in data set [1], the “hepatocyte phenotypic stability (albumin production)” value is given as “loss of hepatocyte phenotypic stability”. For the same molecule, in the data set with iCasp9-GFP fibroblasts (hydrogel-encapsulated, after 6 hours of CID), the fibroblast viability result was “undetectable”. For the same molecule, the fibroblast regrowth entry in the data set with iCasp9-GFP fibroblasts (over the course of 21 days after CID) was “did not regrow”. For the same molecule, the hepatocyte function entry in data set [2] (50 nM CID after 3 or 7 days of co-culture) is recorded as “negatively impacted”. Besides, the “hepatocyte phenotype by albumin secretion rate” value in data set [2] (CID after 1 day of co-culture, followed up to 3 weeks) is “stable phenotype”. Also, the “hepatocyte function, CID pre- versus post-encapsulation in fibrin” value in data set [2] (data not shown) was “No difference”. Also, the “toxicity to co-cultured hepatocytes” value in data set [2] (spheroid-laden hydrogel cultures, data not shown) is listed as “without any apparent toxicity”. Further, the “time within which cellular ATP levels dropped precipitously” value in the data set on iCasp9-HDFs (5 nM CID) was in the range of 2 to 4 h. In addition, the “reduction of iCasp9-HDFs in culture compared to vehicle control” value in the data set with iCasp9-HDFs (10 nM CID, overnight) was roughly 96%. Moreover, the “rapidity of ATP loss” value with iCasp9-HDFs (5, 50, 500 nM CID) is given as “increased with increasing CID concentration”. In addition, in the data set on HUVECs [3], the “self-assembly of HUVECs at day 7” value is “able to self-assemble into perfusable vasculature”. In the data set with HUVECs [4], the “vascular perfusion at day 7” value is listed as “formed perfusable vasculature”.
